Entries after “also recorded” stand apart in the source; their conditions may differ.
Legend:
[1] = test system: TAP; assay: TAP-peptide competitive binding assay; conditions: result in words; for Normalized TAP affinity relative to KK10: competitive binding, Figure 1E
[2] = test system: KK10-specific CTL clone G12C; assay: Competition IFN-γ ELISpot with KK10-specific CTL clone G12C and T2-HLA-B*27:05 cells; format: cell-based, human; conditions: result in words; for Effect on IFN-γ release by G12C in response to KK10 at the EC50 concentration: peptide pre-incubated 30 min at 37°C with T2-HLA-B*27:05 cells at molar ratios 1-800 relative to KK10; for Inhibition of the G12C response to KK10 at the amounts produced by proteasomal digestion: comparison of competition ELISpot with the processing data
Method: G12C cells were expanded as described previously([Iversen et al., 2006]) and rested for 2 days in fresh medium supplemented with IL-2 (20 IU/mL) and IL-15 (25 ng/mL) before testing in IFN-γ ELISpot assays (Merck Millipore) ([Tenzer et al., 2009], [2014]). TAP-deficient T2 cells were transfected with HLA-B^∗27:05 to generate T2-HLA-B^∗27:05 cells ([Kuipers et al., 1996]). These cells were used in competition assays to minimize the potentially confounding effects of internally loaded peptides and other HLA class I and class II molecules. […] The EC50 concentration was determined in preliminary ELISpot assays as the concentration required to elicit half-maximal IFN-γ production ([Tenzer et al., 2009], [2014]). Samples were tested in triplicate or quadruplicate. G12C responses were expressed as spot-forming units per 10^6 cells. Standard ex vivo IFN-γ ELISpot assays were performed as described previously ([Tenzer et al., 2009], [2014]).

[3] = biological target: HLA-B*27:05 (Homo sapiens, UniProt P01889, D138H/D201E/E176V/E204Q/G107R/H137Y/K202T/N104T/N87E/Q56L/Q94K/R106L/R155S/R180L/S101D/S121N/S48T/Y140D/Y33H/Y91C); assay: Refolding of epitope-form peptides with HLA-B*27:05 heavy chain and β2m (heterotrimer formation); format: binding; conditions: rapid dilution refold, size exclusion, mass spectrometry, result in words
From the text: HLA-B^∗27:05 heavy chain and β2M proteins were expressed and purified as described previously ([Burgess, 2009]; [Tenzer et al., 2009]) and refolded with peptide using a rapid dilution method ([Tsumoto et al., 2003]). Heterotrimeric complexes were purified via size exclusion using a HiLoad 26/600 Superdex 75 pg column fitted to an AKTA Purifier FPLC System (GE Healthcare). Eluent fractions corresponding to absorbance peaks were examined via SDS-PAGE. Heterotrimeric complexes were then purified again via size exclusion using a Superdex 75 10/300 GL column fitted to an AKTA Purifier FPLC System (GE Healthcare). Correctly refolded heterotrimers were concentrated to > 10 mg/mL for crystallization trials using Amicon Ultra-0.5 Centrifugal Filter Units with Ultracel-10 Membranes (Merck Millipore). Optimal protein concentrations were determined for each complex using a PCT Pre-Crystallization Test (Hampton Research). […] Crystallization was carried out using the sitting-drop vapor-diffusion method. Briefly, crystallization screen reagents (Hampton Research) were dispensed into a CrystalQuick 96 Well Sitting Drop Plate (Greiner) using a Hydra eDrop II (Thermo Fisher Scientific), and 10 nL of protein was dispensed as a sitting drop in each well after mixing with 10 nL of the corresponding well buffer using a Microsys Liquid Handler (Cartesian Technologies). Crystal screens were stored at 4°C using a Protein Crystallization Imager (Formulatrix). Crystals obtained from the screens were immersed in reservoir buffer containing 20% glycerol as a cryoprotectant and vitrified at 100 K in liquid nitrogen. X-ray diffraction was carried out on beamlines at the European Synchrotron Radiation Facility, Grenoble, France (www.esrf.eu) or at the Diamond Light Source, Didcot, UK (www.diamond.ac.uk).

[4] = test system: PBMCs isolated from HLA-B*27:05+ patients with chronic HIV-1 infection; assay: Ex vivo IFN-γ ELISpot; format: cell-based, human; conditions: PBMCs of ten HLA-B*27:05+ patients, result in words
[5] = test system: KIR3DL1*001; assay: KIR3DL1*001 binding assay (dextramer staining of KIR3DL1*001-transfected BA/F3 cells); conditions: peptide complexed with HLA-B*27:05 dextramer; Figure 7A; result in words
Method: Each line was stained with LIVE/DEAD Fixable Violet (Thermo Fisher Scientific). […] The parental line was used as a control for each condition. Samples were tested in duplicate.

[6] = test system: ERAP1/2; conditions: incubation with ERAP1/2 for 140 min, Figure 1G, result in words

KRWII [KI5]
Normalized TAP affinity relative to KK10 [1]: lowest affinities
Effect on IFN-γ release by G12C in response to KK10 at the EC50 concentration [2]: less striking than those of the longer minitopes
Formation of heterotrimeric complexes with HLA-B*27:05 heavy chain and β2m in refolds [3]: refolded inefficiently
Formation of heterotrimeric complexes with HLA-B*27:05 heavy chain and β2m in refolds ([3]; listed as KL5): formation of heterotrimeric complexes
Peptide-specific IFN-γ release (immunogenicity) [4]: poor immunogenicity

KRWIIL [KL6]
Normalized TAP affinity relative to KK10 [1]: exceeded that of the immunodominant HLA-B^∗57:01/B^∗5703-restricted HIV-1 epitope TW10
Inhibition of the G12C response to KK10 at the amounts produced by proteasomal digestion [2]: more than halve the G12C response to KK10
Peptide-specific IFN-γ release (immunogenicity) [4]: poor immunogenicity

KRWIILGL [KL8]
Normalized TAP affinity relative to KK10 [1]: exceeded that of the immunodominant HLA-B^∗57:01/B^∗5703-restricted HIV-1 epitope TW10
TAP-adjusted production of KK10 epitope forms (predicted relative abundance in the ER) ([1]; proteasomal production adjusted for TAP interactions, Figure 1F): dominant minitope
Inhibition of the G12C response to KK10 at the amounts produced by proteasomal digestion [2]: more than halve the G12C response to KK10
Peptide-specific IFN-γ release (immunogenicity) [4]: Specific IFN-γ release was identified
KIR3DL1 binding relative to KK10 [5]: Further reductions

KRWIILG [KG7]
Normalized TAP affinity relative to KK10 [1]: exceeded that of the immunodominant HLA-B^∗57:01/B^∗5703-restricted HIV-1 epitope TW10
Peptide-specific IFN-γ release (immunogenicity) [4]: poor immunogenicity

KRWI [KI4]
Normalized TAP affinity relative to KK10 [1]: lowest affinities
Effect on IFN-γ release by G12C in response to KK10 at the EC50 concentration [2]: less striking than those of the longer minitopes
Formation of heterotrimeric complexes with HLA-B*27:05 heavy chain and β2m in refolds [3]: formation of heterotrimeric complexes; also recorded: refolded inefficiently
Peptide-specific IFN-γ release (immunogenicity) [4]: poor immunogenicity

GEIYKRWIILGLNKI [GI15]
ERAP1/2 trimming (reduction in abundance) [6]: trimmed significantly more than other epitope forms

KRWIIMGL [KL8-M]
KIR3DL1 binding relative to KK10 [5]: marginally increased binding to KIR3DL1
